Measured values reported in the NIST ThermoML archive (doi:10.1016/j.jct.2016.10.009).

Assay: xn = mol fraction of the nth substance listed
Settings: Liquid, Vibrating tube method

CC(C)OC(C)C [diisopropyl ether] + CCC(C)O
mass density [kg/m3]
Settings	x2 = 0	x2 = 0.2036	x2 = 0.3227	x2 = 0.4464	x2 = 0.4973	x2 = 0.6595	x2 = 0.8482
293.15 K, 100 kPa	723.5	737.9	746.6	756.1	–	774.1	791.8
293.15 K, 1000 kPa	724.6	739	747.6	757	761.1	774.9	792.6
293.15 K, 5000 kPa	729.4	743.4	751.8	761.1	765	778.5	795.9
293.15 K, 10000 kPa	734.9	748.6	756.8	765.7	769.6	782.9	799.8
293.15 K, 15000 kPa	740	753.3	761.4	770.2	774	786.9	803.5
293.15 K, 20000 kPa	744.8	757.9	765.7	774.3	778.1	790.8	807.1
293.15 K, 25000 kPa	749.4	762.2	769.9	778.3	782	794.5	810.4
293.15 K, 30000 kPa	753.7	766.2	773.8	782.2	785.7	798	813.7
293.15 K, 35000 kPa	757.7	770.1	777.6	785.7	789.3	801.3	816.8
293.15 K, 40000 kPa	761.6	773.8	781.1	789.2	792.7	804.5	819.8
293.15 K, 45000 kPa	765.3	777.3	784.6	792.5	796	807.7	822.7
293.15 K, 50000 kPa	768.9	780.7	787.9	795.7	799.1	810.7	825.5
293.15 K, 55000 kPa	772.4	784	791.1	798.8	802.2	813.6	828.3
293.15 K, 60000 kPa	775.7	787.1	794.2	801.8	805.2	816.4	830.9
293.15 K, 65000 kPa	778.9	790.3	797.2	804.8	808.1	819.2	833.5
293.15 K, 70000 kPa	782	793.2	800.1	807.5	810.8	821.8	836
293.15 K, 80000 kPa	787.9	798.9	805.6	812.9	816.2	826.9	840.8
293.15 K, 90000 kPa	793.5	804.4	810.9	818.1	821.3	831.9	845.5
293.15 K, 100000 kPa	798.8	809.3	815.9	822.9	826	836.4	849.8
293.15 K, 110000 kPa	803.9	814.2	820.7	827.6	830.7	840.9	854.1
293.15 K, 120000 kPa	808.7	818.9	825.2	832.1	835.1	845.2	858.2
293.15 K, 130000 kPa	813.2	823.4	829.6	836.4	839.3	849.3	862.1
293.15 K, 140000 kPa	817.6	827.6	833.7	840.4	843.3	853.2	865.8
298.15 K, 100 kPa	718.3	732.9	741.7	751.2	755.4	769.4	787.5
298.15 K, 1000 kPa	719.6	734	742.8	752.2	756.4	770.3	788.3
298.15 K, 5000 kPa	724.5	738.6	747.1	756.3	760.5	774.1	791.7
298.15 K, 10000 kPa	730.2	743.9	752.2	761.2	765.2	778.5	795.7
298.15 K, 15000 kPa	735.6	748.8	757	765.8	769.7	782.8	799.6
298.15 K, 20000 kPa	740.5	753.5	761.5	770.1	773.9	786.7	803.2
298.15 K, 25000 kPa	745.2	757.9	765.7	774.2	777.9	790.5	806.6
298.15 K, 30000 kPa	749.6	762.1	769.8	778.1	781.8	794.1	810
298.15 K, 35000 kPa	753.7	766	773.6	781.7	785.4	797.5	813.1
298.15 K, 40000 kPa	757.8	769.8	777.3	785.3	788.9	800.8	816.2
298.15 K, 45000 kPa	761.6	773.4	780.8	788.7	792.2	804.1	819.2
298.15 K, 50000 kPa	765.2	776.9	784.2	792	795.5	807.1	822.1
298.15 K, 55000 kPa	768.8	780.3	787.5	795.2	798.6	810.1	824.9
298.15 K, 60000 kPa	772.2	783.5	790.6	798.2	801.6	812.9	827.6
298.15 K, 65000 kPa	775.4	786.6	793.7	801.2	804.5	815.7	830.2
298.15 K, 70000 kPa	778.6	789.7	796.6	804.1	807.4	818.5	832.8
298.15 K, 80000 kPa	784.6	795.5	802.3	809.6	812.8	823.7	837.7
298.15 K, 90000 kPa	790.3	801	807.7	814.9	818	828.7	842.4
298.15 K, 100000 kPa	795.7	806.1	812.7	819.8	822.9	833.3	846.9
298.15 K, 110000 kPa	800.8	811.1	817.6	824.5	827.5	837.9	851.2
298.15 K, 120000 kPa	805.6	815.8	822.1	829	832	842.1	855.3
298.15 K, 130000 kPa	810.3	820.3	826.5	833.3	836.3	846.3	859.2
298.15 K, 140000 kPa	814.6	824.6	830.9	837.5	840.4	850.3	863.1
313.15 K, 100 kPa	702.4	717.2	726.3	736.2	740.5	755.1	773.8
313.15 K, 1000 kPa	703.8	718.4	727.5	737.3	741.6	756.1	774.7
313.15 K, 5000 kPa	709.4	723.5	732.4	741.9	746.1	760.2	778.4
313.15 K, 10000 kPa	715.8	729.6	738.2	747.4	751.5	765.2	782.9
313.15 K, 15000 kPa	721.7	735	743.4	752.4	756.4	769.8	787.1
313.15 K, 20000 kPa	727.2	740.2	748.4	757.1	761	774.1	791.1
313.15 K, 25000 kPa	732.1	744.8	752.8	761.4	765.2	778	794.6
313.15 K, 30000 kPa	737.1	749.5	757.4	765.8	769.6	782.1	798.4
313.15 K, 35000 kPa	741.6	753.8	761.5	769.8	773.5	785.8	801.8
313.15 K, 40000 kPa	745.9	757.8	765.4	773.6	777.2	789.3	805.1
313.15 K, 45000 kPa	750	761.7	769.2	777.2	780.8	792.8	808.3
313.15 K, 50000 kPa	753.9	765.5	772.9	780.8	784.3	796.1	811.4
313.15 K, 55000 kPa	757.7	769.1	776.4	784.2	787.7	799.3	814.4
313.15 K, 60000 kPa	761.3	772.7	779.8	787.4	790.9	802.3	817.3
313.15 K, 65000 kPa	764.8	776	783.1	790.7	794.1	805.4	820.1
313.15 K, 70000 kPa	768.1	779.1	786.1	793.7	797	808.2	822.8
313.15 K, 80000 kPa	774.4	785.2	792.1	799.4	802.7	813.7	827.9
313.15 K, 90000 kPa	780.5	791	797.8	805	808.2	818.9	832.9
313.15 K, 100000 kPa	786.1	796.5	803.1	810.1	813.4	823.9	837.6
313.15 K, 110000 kPa	791.4	801.7	808.2	815.1	818.3	828.6	842.1
313.15 K, 120000 kPa	796.5	806.5	813	819.8	822.9	833	846.4
313.15 K, 130000 kPa	801.4	811.3	817.7	824.4	827.4	837.4	850.5
313.15 K, 140000 kPa	806	815.8	822	828.7	831.7	841.6	854.5
333.15 K, 100 kPa	680.5	695.4	704.8	715.1	719.6	734.7	754.2
333.15 K, 1000 kPa	682.1	696.9	706.3	716.4	720.9	735.9	755.4
333.15 K, 5000 kPa	688.9	703	712.1	721.9	726.3	740.8	759.7
333.15 K, 10000 kPa	696.4	709.9	718.7	728.2	732.4	746.5	764.8
333.15 K, 15000 kPa	703.2	716.4	724.8	734	738.1	751.8	769.6
333.15 K, 20000 kPa	709.4	722.2	730.4	739.3	743.4	756.7	774.1
333.15 K, 25000 kPa	715.1	727.6	735.7	744.4	748.3	761.3	778.2
333.15 K, 30000 kPa	720.5	732.7	740.5	749.1	752.9	765.7	782.3
333.15 K, 35000 kPa	725.6	737.5	745.2	753.6	757.3	769.8	786.2
333.15 K, 40000 kPa	730.3	742	749.6	757.8	761.5	773.7	789.8
333.15 K, 45000 kPa	734.8	746.3	753.7	–	–	–	–
